Measurements as given in article PMC9533837 (Antiviral Research, 2003).
≈ marks a conversion by molar mass, not a printed value. Read-outs that look alike come from different tables or passages of the source.

How the values were obtained:
CPX Brighton [1] = test: organism not typed; assay type: cell-based, cowpox
[2] = system: VAR-YAM (1946 Japan Yamada isolate of VAR major); test: organism not typed; assay type: cell-based, variola major
[3] = system: VAR-GAR (1966 Brazil Garcia isolate of VAR minor); test: organism not typed; assay type: cell-based, variola minor
VAC Copenhagen [4] = test: microbe, parasite or virus in culture; assay type: cell-based, vaccinia virus
CPX Brighton [5] = test: organism not typed; assay type: cell-based, cowpox; remark: listed apart in the source
[6] = system: orthopoxviruses (VAR-BSH, VAR-YAM, VAR-GAR, MPX, CPX, VAC); test: organism not typed; assay type: cell-based
[7] = system: VAR-BSH (1975 Bangladesh isolate of VAR major); test: organism not typed; assay type: cell-based, variola major
[8] = system: VAR-GAR (1966 Brazil Garcia isolate of VAR minor); test: organism not typed; assay type: cell-based, variola minor; remark: listed apart in the source
[9] = system: MPX Zaire (V79-1-005-Scab); test: organism not typed; assay type: cell-based, monkeypox
[10] = system: VAR-YAM (1946 Japan Yamada isolate of VAR major); test: organism not typed; assay type: cell-based, variola major; remark: listed apart in the source
LLC-MK2 cells = conditions: rhesus monkey
Vero cells = conditions: African green monkey
[11] = system: VAR-BSH (1975 Bangladesh isolate of VAR major); test: organism not typed; assay type: cell-based, variola major; remark: listed apart in the source
VAC Copenhagen [12] = test: microbe, parasite or virus in culture; assay type: cell-based, vaccinia virus; remark: listed apart in the source
[13] = system: MPX Zaire (V79-1-005-Scab); test: organism not typed; assay type: cell-based, monkeypox; remark: listed apart in the source
VAC = test: microbe, parasite or virus in culture; assay type: cell-based; conditions: Orthopoxvirus vaccinia, read-out: IC50 against VAC
[14] = system: DNA polymerase of CMV versus human DNA polymerase α; conditions: cited from earlier work

CC(C)(C)C(=O)OCOP(=O)(COCCn1cnc2c(N)ncnc21)OCOC(=O)C(C)(C)C [bis-POM-PMEA, 9-[2-[[bis[(pivaloyloxy)-methoxy]phosphinyl]methoxy]ethyl]adenine]
Therapeutic index (TI) CPX LLC-MK2 (CPX Brighton [1]): 1.2
IC50 (CPX Brighton [1]; LLC-MK2, read-out: IC50 CPX LLC-MK2): 86 µg/mL (≈ 171 µM)
Therapeutic index (TI) VAR-YAM LLC-MK2 [2]: 1.0
IC50 ([2]; LLC-MK2, read-out: IC50 VAR-YAM LLC-MK2): > 100 µg/mL
Therapeutic index (TI) VAR-GAR LLC-MK2 [3]: 1.2
IC50 ([3]; LLC-MK2, read-out: IC50 VAR-GAR LLC-MK2): 85 µg/mL (≈ 169 µM)
Therapeutic index (TI) VAC LLC-MK2 (VAC Copenhagen [4]): 1.5
IC50 (VAC Copenhagen [4]; Orthopoxvirus vaccinia, LLC-MK2, read-out: IC50 VAC LLC-MK2): 66.2 µg/mL (≈ 132 µM)
Therapeutic index (TI) CPX Vero (CPX Brighton [5]): 1.3
IC50 (CPX Brighton [5]; Vero, read-out: IC50 CPX Vero): 75.5 µg/mL (≈ 151 µM)
inhibitory activity against the orthopoxviruses tested (in words) [6]: Neither PMEA nor bis-POM-PMEA was effective
Therapeutic index (TI) VAR-BSH Vero [7]: 1.2
IC50 ([7]; Vero, read-out: IC50 VAR-BSH Vero): 84.2 µg/mL (≈ 168 µM)
Therapeutic index (TI) VAR-GAR Vero [8]: 1.1
IC50 ([8]; Vero, read-out: IC50 VAR-GAR Vero): 90 µg/mL (≈ 179 µM)
Therapeutic index (TI) MPX LLC-MK2 [9]: 1.0
IC50 ([9]; LLC-MK2, read-out: IC50 MPX LLC-MK2): > 100 µg/mL
Therapeutic index (TI) VAR-YAM Vero [10]: 1.0
IC50 ([10]; Vero, read-out: IC50 VAR-YAM Vero): > 100 µg/mL
Cytotoxicity TC50 LLC-MK2 (LLC-MK2 cells): >100 µg/mL
Cytotoxicity TC50 Vero (Vero cells): >100 µg/mL
Therapeutic index (TI) VAR-BSH LLC-MK2 [11]: 1.0
IC50 ([11]; LLC-MK2, read-out: IC50 VAR-BSH LLC-MK2): > 100 µg/mL
Therapeutic index (TI) VAC Vero (VAC Copenhagen [12]): 2.3
IC50 (VAC Copenhagen [12]; Orthopoxvirus vaccinia, Vero, read-out: IC50 VAC Vero): 44 µg/mL (≈ 87.7 µM)
Therapeutic index (TI) MPX Vero [13]: 1.0
IC50 ([13]; Vero, read-out: IC50 MPX Vero): > 100 µg/mL
IC50 (VAC): 55.1 µg/mL (≈ 110 µM)

Nc1ccn(CC(CO)OCP(=O)(O)OP(=O)(O)OP(=O)(O)O)c(=O)n1 (centres unmarked) [Cidofovir diphosphate, cidofovir 5′-diphosphate]
lower concentration inhibiting DNA polymerase of CMV than human DNA polymerase α [14]: 10 fold
